Experimental data reported in patent US5124083A, “3-substituted and 3,3-disubstituted 4-oxoretinoic acids and their esters” (Southern Research Institute, priority 1990, dated 1992).
Read-outs that look alike come from different tables or passages of the source.

How the values were obtained:
ornithine decarboxylase = test: Ornithine decarboxylase assay (reduction of TPA-induced ODC activity in mouse skin); type: in vivo; details: for Ornithine Decarboxylase Activity, Average % of Control Group: TPA-induced ODC, mouse skin, nanomoles of carbon dioxide per milligram of protein per half hour; for ODC activity as % of the ODC activity in the control mice, summary range: TPA-induced, summary of Table III in text
From the text: A bioassay in vivo for activity in the prevention of carcinogen-induced cancer is based on the reduction by a retinoid of the amount of ornithine decarboxylase (ODC) induced in mouse skin by the tumor promoter 12-O-tetradecanoylphorbol 13-acetate (TPA). Verma et al. (Cancer Research, Vol. 38, pages 793-801, 1978), reported that "application of the potent tumor-promoting agent 12-O-tetradecanoylphorbol 13-acetate (TPA) to mouse skin leads to a rapid and transient induction of epidermal ornithine decarboxylase activity". They state, further, that "inhibition of this enzyme activity by retinoids may be a simple and rapid in vivo test for assessing the potential prophylactic activity of new synthetic retinoids". All of the tested 4-oxoretinoid analogues reduced TPA-induced ODC activity. The compounds of Examples 2-4, 8, 11, 17, 18, and 20-23 reduced ODC activity to 22-47% of the ODC activity in the control mice and are, therefore, very active in this assay for cancer chemopreventive activity.
Ornithine Decarboxylase Assay
Assays for the reduction by 4-oxoretinoids of ornithine decarboxylase activity induced by 12-O-tetradecanoylphorbol 13-acetate (TPA) were performed by the procedure of Verma et al., Cancer Research, Vol. 38, pages 793-801 (1978).

skin papillomas = test: Mouse antipapilloma assay (DMBA-TPA skin papillomas); type: in vivo; parameters: Average Number of Skin Papillomas/Mouse as % of No. of Papillomas/Mouse in the DMBA-TPA Control Group of Mice: concentration or dose not given beside the values; details: for Average Number of Skin Papillomas/Mouse as % of No. of Papillomas/Mouse in the DMBA-TPA Control Group of Mice: DMBA-initiated, TPA-promoted mouse skin; for Reduction of papilloma formation, summary range: range over the six most active retinoids; for Papilloma formation as % of papilloma formation in untreated control mice, summary range: summary of Table IV
From the text: Application of the carcinogen DMBA to mouse skin followed by application of the tumor promoter TPA causes the formation of papillomas. Certain retinoids applied to the same area of mouse skin reduce or prevent papilloma formation (e.g. H. Mayer, W. Bollag, R. Hanni, and R. Ruegg, Experientia, Vol 34, pages 1105-1119, 1978; R. K. Boutwell and A. K. Verma, Pure and Applied Chemistry, Vol. 51, pages 857-866, 1979). The antipapilloma assay is a direct test of the capability of a retinoid to prevent tumor formation in vivo. It has been used to select retinoids for clinical development. The tested retinoids reduced papilloma formation to 27-83% of papilloma formation in untreated control mice. […] The number of papillomas in mice treated with either of these six retinoids was 27-40% of the number of papillomas on untreated mice; or, differently expressed, papilloma formation was reduced by 60-73%.
In this assay, tumors are initiated in mice by applying the carcinogen DMBA to the skin of mice and subsequently applying the promoter TPA. The method is that of Verma et al., Cancer Research, Vol. 39, pages 419-425, 1979.

[1] = tested on: F9 Embryonal Carcinoma Cells; test: Induction of differentiation of F9 embryonal carcinoma cells (plasminogen activator release); type: cell-based; details: Mus musculus, 96 h, by release of plasminogen activator, 4 days, read-out: Differentiation of F9 Embryonal Carcinoma Cells ED50
Method: Induction of differentiation of cancer cells is a potential mode of cancer chemoprevention. […] Elevated release of plasminogen activator by F9 cells in the presence of retinoids is a marker for differentiation. Induction of differentiation of F9 cells by several of the retinoids of this invention was evaluated, and the results are summarized in Table I (Example 24) as values of ED50. All of the tested 4-oxoretionoic acid analogues induce differentiation at low concentrations (ED50 =[…] -10^-10 molar) and, therefore, are very effective inducers of differentiation of mouse F9 embryonal carcinoma cells. […] Under the conditions of this assay, ester derivatives might be hydrolyzed partially to the carboxylic acids.
Assay for Induction of Differentiation of Cancer Cells to Normal Cells
Evaluation of the differentiation potential of 4-oxoretinoids was carried out with an embryonal carcinoma cell line, F9. Elevation of plasminogen activator release by F9 cells in the presence of retinoids is a marker for inducing differentiation into parietal endoderm (Strickland and Mahdavi, loc. cit.; Strickland and Sawey, loc. cit.). F9 cells were grown at a density of 1×10^5 cells/mL in the presence or absence of […], 10^-8, 10^-9, 10^-10, and 10^-11 or molar retinoids for 4 days. Aliquots (20 μL) of the harvest fluid were mixed with 0.13 μM plasminogen, 0.3 mM H-D-Val-Leu-Lys-p-nitroaniline (a synthetic substrate of plasmin), 0.1% Tween 80, and 25 μg of fibrinogen fragments in a final volume of 0.2 mL of Tris-HCl, pH 7.5. After incubation for 4 hours at 25° C., the generation of p-nitroaniline was measured by absorbance at 405 nm. The average absorbencies from duplicate experiments were plotted (semilog plots) versus concentration (molarity). The ED50 values were determined by finding the midpoint between the maximal and minimal absorbance values.
Induction of Differentiation of Cancer Cells
^a ED50 is the molar concentration of the retinoid that causes
50% induction of differentiation of the carcinoma cells as measured by th
release of plasminogen activator.

[2] = molar concentration causing 50% induction of differentiation

SMILES: C=CCC1CC(C)(C)C(/C=C/C(C)=C/C=C/C(C)=C/C(=O)OC)=C(C)C1=O (stereo not shown) [Example 7, Methyl 4-Oxo-3-(2-propenyl)retinoate]
- Ornithine Decarboxylase Activity, Average % of Control Group (ornithine decarboxylase): 56 % of Control Group
- Average Number of Skin Papillomas/Mouse as % of No. of Papillomas/Mouse in the DMBA-TPA Control Group of Mice (skin papillomas): 42%

SMILES: CCC1CC(C)(C)C(/C=C/C(C)=C/C=C/C(C)=C/C(=O)O)=C(C)C1=O (stereo not shown) [Example 18, 3-Ethyl-4Oxoretionoic Acid]
- EC50 [1, 2]: 5 nM
- Ornithine Decarboxylase Activity, Average % of Control Group (ornithine decarboxylase): 40 % of Control Group
- ODC activity as % of the ODC activity in the control mice, summary range (ornithine decarboxylase): 22-47 % of the ODC activity in the control mice
- Average Number of Skin Papillomas/Mouse as % of No. of Papillomas/Mouse in the DMBA-TPA Control Group of Mice (skin papillomas): 57%

SMILES: C#CCC1CC(C)(C)C(/C=C/C(C)=C/C=C/C(C)=C/C(=O)OC)=C(C)C1=O (stereo not shown) [Example 8, Methyl 4-Oxo-3-(2-propynyl)retinoate]
- EC50 [1, 2]: 1.5 nM
- Ornithine Decarboxylase Activity, Average % of Control Group (ornithine decarboxylase): 35 % of Control Group
- ODC activity as % of the ODC activity in the control mice, summary range (ornithine decarboxylase): 22-47 % of the ODC activity in the control mice
- Average Number of Skin Papillomas/Mouse as % of No. of Papillomas/Mouse in the DMBA-TPA Control Group of Mice (skin papillomas): 40%
- Reduction of papilloma formation, summary range (skin papillomas): 60-73%
- Papilloma formation as % of papilloma formation in untreated control mice, summary range (skin papillomas): 27-40%

SMILES: COC(=O)/C=C(C)/C=C/C=C(C)/C=C/C1=C(C)C(=O)C(CC=Cc2ccccc2)CC1(C)C (stereo not shown) [Example 3, Methyl 3-Cinnamyl-4-oxoretinoate]
- Ornithine Decarboxylase Activity, Average % of Control Group (ornithine decarboxylase): 31 % of Control Group

SMILES: CC1=C(/C=C/C(C)=C/C=C/C(C)=C/C(=O)O)C(C)(C)CC(CC=Cc2ccccc2)C1=O (stereo not shown) [Example 22, 3-Cinnamyl-4-oxoretinoic Acid]
- EC50 [1, 2]: 3.5 nM
- Ornithine Decarboxylase Activity, Average % of Control Group (ornithine decarboxylase): 23 % of Control Group
- Average Number of Skin Papillomas/Mouse as % of No. of Papillomas/Mouse in the DMBA-TPA Control Group of Mice (skin papillomas): 39%
- Reduction of papilloma formation, summary range (skin papillomas): 60-73%
- Papilloma formation as % of papilloma formation in untreated control mice, summary range (skin papillomas): 27-40%

SMILES: CCC1CC(C)(C)C(/C=C/C(C)=C/C=C/C(C)=C/C(=O)OC)=C(C)C1=O (stereo not shown) [Example 4, Methyl 3-Ethyl-4-oxoretinoate]
- Ornithine Decarboxylase Activity, Average % of Control Group (ornithine decarboxylase): 31 % of Control Group
- Average Number of Skin Papillomas/Mouse as % of No. of Papillomas/Mouse in the DMBA-TPA Control Group of Mice (skin papillomas): 83%

SMILES: CC1=C(/C=C/C(C)=C/C=C/C(C)=C/C(=O)O)C(C)(C)CC(C)(C)C1=O [Example 23, 3.3-Dimethyl-4-Oxoretinoic Acid]
- EC50 ([1]; average of two determinations, 50% induction of differentiation): 0.23 nM
- Ornithine Decarboxylase Activity, Average % of Control Group (ornithine decarboxylase): 26 % of Control Group
- Average Number of Skin Papillomas/Mouse as % of No. of Papillomas/Mouse in the DMBA-TPA Control Group of Mice (skin papillomas): 27%
- Reduction of papilloma formation, summary range (skin papillomas): 60-73%
- Papilloma formation as % of papilloma formation in untreated control mice, summary range (skin papillomas): 27-40%

SMILES: C=CCC1CC(C)(C)C(/C=C/C(C)=C/C=C/C(C)=C/C(=O)O)=C(C)C1=O (stereo not shown) [Example 19, 4-Oxo-3-(2-propenyl)retinoic Acid]
- EC50 [1, 2]: 0.7 nM
- Ornithine Decarboxylase Activity, Average % of Control Group (ornithine decarboxylase): 68 % of Control Group
- Average Number of Skin Papillomas/Mouse as % of No. of Papillomas/Mouse in the DMBA-TPA Control Group of Mice (skin papillomas): 47%
